Measured values as given in PMC11963559, “Identification of novel thiazole derivatives as flaviviral protease inhibitors effective against Dengue (DENV2) and Japanese encephalitis viruses” (Antimicrobial Agents and Chemotherapy, 2025).

Tests used:
[1] = tested on: JEV; assay: JEV replication in BHK-21 cells, viral RNA by qRT-PCR; type: cell-based; conditions: for IC50: BHK-21, 24 h, read-out: IC50, reduction of JEV viral RNA
Description: Therefore, we sought to evaluate the efficacy of these compounds against JEV to assess their broad-spectrum anti-viral action against flaviviruses.
BHK-21 cells were seeded in a 24-well cell culture plate at a density of (0.25 × 10^6 cells/well) with regular growth medium containing DMEM + 10% FBS 1 day prior to infection in triplicate. Once the cells reached 85%–90% confluence, they were infected with DENV2 and JEV virus inoculum comprising DMEM + 2% FBS and 10 µM of the compound at an MOI of 0.1. Cells were incubated for 1.5 h at 37 °C with the virus-compound inoculum, with gentle rocking every 10 min to ensure even coverage and prevent the cellular monolayer from drying. […] The cell culture supernatant was aspirated and washed with PBS, and the cellular monolayer was used for viral RNA isolation.
Total cellular RNA was extracted from BHK-21 cells using TRIzol reagent, according to the manufacturer’s instructions (Ambion Life Technologies, USA). RNA quantity and integrity were determined prior to use on a NanoDrop spectrophotometer (Thermo Fisher Scientific). Then, 1 µg of total RNA from each experimental sample was used to synthesize cDNA by reverse transcriptase (RT) by incubating the RNAs with Moloney murine leukemia virus (M-MuLV) RT, with specific RT primer, 5′-[…]-3′ (Tm = 63 °C), and deoxynucleoside triphosphates (dNTPs) (New England Biolabs) at 42 °C for 50 min, followed by inactivation at 70 °C for 15 min.
To quantify the viral RNA copy number, quantitative RT-PCR (qRT-PCR) was performed in duplicate using iTaq Universal SYBR Green Supermix (Bio-Rad). The cDNAs used for qPCR analysis were prepared using Power SYBR Green PCR Master Mix (Bio-Rad, #172–5125) in a QuantStudio5 Applied Biosystems real-time PCR system. […] Delta Ct for both control and compound-treated samples was determined and subsequently analyzed by determining the delta Ct to determine the mRNA expression of target genes in control vs treated samples.

[2] = tested on: DENV2; assay: DENV2 progeny virus titer in BHK-21 supernatant (TCID50 assay); type: cell-based; conditions: Dengue virus, DENV2, BHK-21, read-out: IC50 of viral titer reduction (called TCID50 in the source)
Description: To this end, we assessed the antiviral activity of shortlisted compounds by evaluating their ability to inhibit progeny virus production. BHK-21 cells were infected with DENV2 and JEV (MOI: 0.1) in the presence of different concentrations of 3aq or 3au or with DMSO, and viral titer was determined in the supernatants harvested at 18 hpi. Compound 3aq caused the maximum reduction of viral titer showing TCID50 of 5.18 ± 0.87 and 2.29 ± 0.50 µM against DENV2 and JEV, respectively (Fig. 8B and D).
During DENV2 and JEV infection, the viral supernatant was collected and used in the TCID50 assay to determine the viral titer. Then, 3 × 10^4 BHK-21 cells per well were seeded in a 96-well cell culture microtiter plate the day before titration. The virus stock was diluted with infection media (DMEM + 2% FBS) to attain virus dilutions of 1 × 10^−2 to 6.4 × 10^−7 in 12 parallels, with the last column of the 96-well plate serving as virus-free cell control. On the day of the assay, when the cell had reached 90%–95% confluency, the growth medium was aspirated using a multichannel pipette, and 100 µL of virus inoculum of different dilutions was transferred to each well, keeping the last well only in infection media without virus. The cells were then incubated at 37 °C in a humidified 5% CO2 chamber. […] TCID50 was calculated using the Spearman and Karber methods.

| Structure (SMILES) | IC50 [1] | IC50 [2] | SI, selectivity index (CC50/IC50) ([1]; JEV, BHK-21 cells, qRT-PCR IC50) |
| --- | --- | --- | --- |
| COc1ccc(-c2csc(N/N=C(\C)c3ccc(O)cc3)n2)cc1 [3aq] | 1.03 ± 0.21 µM | 5.18 ± 0.87 µM | – |
| COc1ccc(-c2csc(N/N=C(\C)c3cc(O)cc(O)c3)n2)cc1 [3au] | 1.16 ± 0.16 µM | 7.58 ± 1.02 µM | 67.8 |
